Source: publication PMC4685510, “A Cell Biologist’s Field Guide to Aurora Kinase Inhibitors” (Frontiers in Oncology, 2015)

Columns and labels:
Assay in all cases: biochemical
Type in all cases: biochemical
[1] = target: 363 human kinases (including Aurora A/B/C) (Homo sapiens, UniProt P51957); conditions: NEK4; for remaining activity at 0.1 µM: 100 nM; for remaining activity at 0.1 µM / remaining activity at 0.5 µM: read-out: % Enzyme Activity (relative to DMSO controls)
Text: (§1) However, the Aurora A/B selectivity ratios derived from our in vitro and in vivo data can be compared to prioritize inhibitors.

[2] = target: T1, 363 human kinases (including Aurora A/B/C) (Homo sapiens, UniProt Q04771); conditions: ALK2/ACVR1, [ATP] 20 µM; for remaining activity at 0.1 µM: 100 nM; for remaining activity at 0.1 µM / remaining activity at 0.5 µM: read-out: % Enzyme Activity (relative to DMSO controls)
T1 sequence (Q04771 21-509): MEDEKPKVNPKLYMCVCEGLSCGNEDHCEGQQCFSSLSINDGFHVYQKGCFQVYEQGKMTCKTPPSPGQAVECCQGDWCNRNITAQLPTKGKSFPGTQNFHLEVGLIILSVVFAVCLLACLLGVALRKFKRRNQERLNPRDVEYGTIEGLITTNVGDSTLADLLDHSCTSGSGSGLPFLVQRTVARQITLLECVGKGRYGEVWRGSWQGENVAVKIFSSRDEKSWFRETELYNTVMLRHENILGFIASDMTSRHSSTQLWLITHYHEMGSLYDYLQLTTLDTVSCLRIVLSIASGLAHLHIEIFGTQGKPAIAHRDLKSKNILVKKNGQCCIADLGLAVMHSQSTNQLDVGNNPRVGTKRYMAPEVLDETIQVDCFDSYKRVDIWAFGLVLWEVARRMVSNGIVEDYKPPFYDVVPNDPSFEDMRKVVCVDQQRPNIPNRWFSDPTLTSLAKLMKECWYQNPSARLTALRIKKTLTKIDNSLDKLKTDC
Text: as §1

[3] = target: T2, 363 human kinases (including Aurora A/B/C) (Homo sapiens, UniProt Q8IVH8); conditions: GLK/MAP4K3; for remaining activity at 0.1 µM: 100 nM; for remaining activity at 0.1 µM / remaining activity at 0.5 µM: read-out: % Enzyme Activity (relative to DMSO controls)
T2 sequence (Q8IVH8 1-894): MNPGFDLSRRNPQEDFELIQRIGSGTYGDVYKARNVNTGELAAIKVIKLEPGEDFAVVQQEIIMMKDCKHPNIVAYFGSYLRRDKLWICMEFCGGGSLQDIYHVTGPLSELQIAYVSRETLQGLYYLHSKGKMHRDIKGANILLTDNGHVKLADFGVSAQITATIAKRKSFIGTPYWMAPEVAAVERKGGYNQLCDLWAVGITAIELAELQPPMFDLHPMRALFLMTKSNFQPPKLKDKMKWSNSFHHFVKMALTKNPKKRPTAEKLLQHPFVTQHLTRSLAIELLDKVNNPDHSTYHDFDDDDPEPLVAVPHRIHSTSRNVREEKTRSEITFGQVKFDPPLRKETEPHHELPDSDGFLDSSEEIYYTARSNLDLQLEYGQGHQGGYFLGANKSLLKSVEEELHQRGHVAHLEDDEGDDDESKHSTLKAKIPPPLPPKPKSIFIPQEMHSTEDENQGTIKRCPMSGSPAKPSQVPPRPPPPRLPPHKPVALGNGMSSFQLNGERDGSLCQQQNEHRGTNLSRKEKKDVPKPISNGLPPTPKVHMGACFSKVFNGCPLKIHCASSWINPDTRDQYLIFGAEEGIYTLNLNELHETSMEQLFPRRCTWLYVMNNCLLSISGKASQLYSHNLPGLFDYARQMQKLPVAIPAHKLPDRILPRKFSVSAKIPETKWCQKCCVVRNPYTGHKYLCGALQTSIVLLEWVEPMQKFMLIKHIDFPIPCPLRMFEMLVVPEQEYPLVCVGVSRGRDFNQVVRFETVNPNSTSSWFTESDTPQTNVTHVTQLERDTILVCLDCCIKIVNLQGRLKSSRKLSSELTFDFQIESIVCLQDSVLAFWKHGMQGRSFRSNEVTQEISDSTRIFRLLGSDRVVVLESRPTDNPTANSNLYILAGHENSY
Text: as §1

[4] = target: T3, 363 human kinases (including Aurora A/B/C) (Homo sapiens, UniProt Q16832); conditions: DDR2, [ATP] 5 µM; for remaining activity at 0.1 µM: 100 nM; for remaining activity at 0.1 µM / remaining activity at 0.5 µM: read-out: % Enzyme Activity (relative to DMSO controls)
T3 sequence (Q16832 22-855): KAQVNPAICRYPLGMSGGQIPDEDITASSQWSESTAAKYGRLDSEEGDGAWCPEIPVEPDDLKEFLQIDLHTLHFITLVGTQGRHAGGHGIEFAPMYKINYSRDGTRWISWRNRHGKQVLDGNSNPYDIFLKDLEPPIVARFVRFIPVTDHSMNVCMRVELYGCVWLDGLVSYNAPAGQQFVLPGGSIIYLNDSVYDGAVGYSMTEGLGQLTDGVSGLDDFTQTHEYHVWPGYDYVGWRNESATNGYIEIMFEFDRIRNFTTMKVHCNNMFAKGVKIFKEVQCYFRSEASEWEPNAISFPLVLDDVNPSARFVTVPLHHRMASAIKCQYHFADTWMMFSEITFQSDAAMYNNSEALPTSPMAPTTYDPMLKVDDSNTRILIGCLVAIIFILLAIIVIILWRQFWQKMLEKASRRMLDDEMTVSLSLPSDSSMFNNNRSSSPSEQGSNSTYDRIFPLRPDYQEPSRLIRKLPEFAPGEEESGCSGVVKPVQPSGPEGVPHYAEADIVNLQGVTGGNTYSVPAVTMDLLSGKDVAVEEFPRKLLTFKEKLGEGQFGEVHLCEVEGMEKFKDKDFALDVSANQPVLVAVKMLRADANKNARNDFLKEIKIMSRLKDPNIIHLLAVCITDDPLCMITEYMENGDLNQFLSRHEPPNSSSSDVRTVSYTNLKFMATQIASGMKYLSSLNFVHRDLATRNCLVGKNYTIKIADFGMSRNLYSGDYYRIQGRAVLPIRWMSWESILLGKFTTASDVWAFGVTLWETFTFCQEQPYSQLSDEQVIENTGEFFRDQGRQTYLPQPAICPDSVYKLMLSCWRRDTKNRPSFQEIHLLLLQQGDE
Text: as §1

[5] = target: 363 human kinases (including Aurora A/B/C) (Homo sapiens, UniProt Q9Y6E0); conditions: MST3/STK24; for remaining activity at 0.1 µM: 100 nM; for remaining activity at 0.1 µM / remaining activity at 0.5 µM: read-out: % Enzyme Activity (relative to DMSO controls)
Chain of 363 human kinases (including Aurora A/B/C) (Homo sapiens, UniProt Q9Y6E0) (Q9Y6E0 whole entry): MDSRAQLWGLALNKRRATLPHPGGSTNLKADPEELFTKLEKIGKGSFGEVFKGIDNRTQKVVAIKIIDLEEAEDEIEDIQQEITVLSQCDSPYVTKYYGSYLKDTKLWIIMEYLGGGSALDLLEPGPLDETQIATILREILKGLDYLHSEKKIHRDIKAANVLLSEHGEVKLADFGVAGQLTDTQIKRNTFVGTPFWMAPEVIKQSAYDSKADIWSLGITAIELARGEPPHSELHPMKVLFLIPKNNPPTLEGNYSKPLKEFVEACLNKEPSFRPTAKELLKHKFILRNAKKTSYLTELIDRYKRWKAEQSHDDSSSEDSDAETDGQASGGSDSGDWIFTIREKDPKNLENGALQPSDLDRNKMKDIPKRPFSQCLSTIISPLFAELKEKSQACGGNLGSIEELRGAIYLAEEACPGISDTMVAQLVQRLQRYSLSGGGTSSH
Text: as §1

Chain of 363 human kinases (including Aurora A/B/C) (Homo sapiens, UniProt P51957) (P51957 whole entry): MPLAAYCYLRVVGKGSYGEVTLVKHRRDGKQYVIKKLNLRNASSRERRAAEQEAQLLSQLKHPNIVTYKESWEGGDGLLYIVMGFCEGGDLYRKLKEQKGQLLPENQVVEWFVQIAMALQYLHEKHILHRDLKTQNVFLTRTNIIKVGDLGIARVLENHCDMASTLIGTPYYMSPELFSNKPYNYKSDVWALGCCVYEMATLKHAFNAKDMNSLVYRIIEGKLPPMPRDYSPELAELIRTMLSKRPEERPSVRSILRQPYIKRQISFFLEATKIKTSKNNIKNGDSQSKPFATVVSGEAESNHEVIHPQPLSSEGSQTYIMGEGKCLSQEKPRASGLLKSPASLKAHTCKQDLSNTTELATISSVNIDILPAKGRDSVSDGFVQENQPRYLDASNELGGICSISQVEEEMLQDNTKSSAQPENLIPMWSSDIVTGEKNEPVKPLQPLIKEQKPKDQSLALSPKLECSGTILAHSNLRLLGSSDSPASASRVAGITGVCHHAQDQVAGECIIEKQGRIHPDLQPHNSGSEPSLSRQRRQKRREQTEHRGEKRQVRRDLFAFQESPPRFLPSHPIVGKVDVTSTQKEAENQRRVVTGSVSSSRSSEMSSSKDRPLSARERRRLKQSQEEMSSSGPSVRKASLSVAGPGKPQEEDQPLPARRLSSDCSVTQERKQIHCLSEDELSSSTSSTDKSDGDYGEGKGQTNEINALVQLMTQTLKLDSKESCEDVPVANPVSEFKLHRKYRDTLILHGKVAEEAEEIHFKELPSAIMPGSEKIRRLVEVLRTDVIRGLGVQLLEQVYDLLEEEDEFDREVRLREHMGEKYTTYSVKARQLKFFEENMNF

Compound | remaining activity at 0.1 µM [1] [%] | remaining activity at 0.1 µM [2] [%] | remaining activity at 0.1 µM [3] [%] | remaining activity at 0.1 µM [4] [%] | remaining activity at 0.1 µM [5] [%] | remaining activity at 0.5 µM ([1]; 500 nM) [%] | remaining activity at 0.5 µM ([2]; 500 nM) [%] | remaining activity at 0.5 µM ([3]; 500 nM) [%] | remaining activity at 0.5 µM ([4]; 500 nM) [%] | remaining activity at 0.5 µM ([5]; 500 nM) [%] | % Enzyme Activity (relative to DMSO controls) ([1]; 500 nM) [%] | % Enzyme Activity (relative to DMSO controls) ([2]; 500 nM) [%] | % Enzyme Activity (relative to DMSO controls) ([3]; 500 nM) [%] | % Enzyme Activity (relative to DMSO controls) ([4]; 500 nM) [%] | % Enzyme Activity (relative to DMSO controls) ([5]; 500 nM) [%]
CCn1cc(-c2ccnc3[nH]c(-c4cccc(CN(C)C)c4)cc23)c(-c2ccc(NC(=O)N(C)C)cc2)n1 [GSK1070916] | 111 | 130 | 88.3 | 76.1 | 85.4 | – | – | – | – | – | – | – | – | – | –
O=C(O)[C@]1(Cc2cccc(Nc3nccs3)n2)CC[C@@H](Oc2cccc(Cl)c2F)CC1 [MK-5108] | 96.7 | 116 | 103 | 21.8 | 102 | 113 | 34.5 | 82.7 | 9.68 | 87.9 | – | – | – | – | –
O=C(c1cccc(Cl)c1F)N1CCN(Cc2cccc(Nc3nccs3)n2)CC1 [MK-8745] | – | – | – | – | – | 107 | 146 | 88.7 | 73.2 | 85.3 | 103.20 | 140.43 | 88.41 | 71.49 | 84.91
